Measurements as given in patent US20070128217A1 (priority 2003, published 2007).

Columns and labels:
[1] = test system: antibodies in sera from SARS patients (sera 1a, 1b, 2, 6, 37, 62, London, SARS-yellow, SARS-green); assay type: binding, human; parameters: Binding of serum 6 to linear peptides of protein X1 of SARS-CoV Urbani / Binding of serum 37 to linear peptides of protein X1 of SARS-CoV Urbani / Binding of serum 6 to looped/cyclic peptide (PEPSCAN-ELISA) / Binding of serum 37 to looped/cyclic peptide (PEPSCAN-ELISA) / Binding of serum 37 to looped/cyclic peptides of protein X1 of SARS-CoV Urbani / Binding of serum 6 to linear peptides of protein X2 / Binding of serum 37 to linear peptides of protein X2 / Binding of serum 37 to looped/cyclic peptides of protein X2 of SARS-CoV Urbani / Binding of serum 6 to linear peptides of protein M of SARS-CoV Urbani / Binding of serum 37 to linear peptides of protein M of SARS-CoV Urbani / Binding of serum 6 to looped/cyclic peptides of protein M of SARS-CoV Urbani / Binding of serum 37 to looped/cyclic peptides of protein M of SARS-CoV Urbani / Binding of serum 6 to linear peptides of protein X3 of SARS-CoV Urbani / Binding of serum 37 to linear peptides of protein X3 of SARS-CoV Urbani / Binding of serum 37 to looped/cyclic peptides of protein X3 of SARS-CoV Urbani / Binding of serum 6 to linear peptides of protein X4 of SARS-CoV Urbani / Binding of serum 37 to linear peptides of protein X4 of SARS-CoV Urbani / Binding of serum 37 to looped/cyclic peptides of protein X4 of SARS-CoV Urbani / Binding of serum 6 to linear peptides of protein X5 of SARS-CoV Urbani / Binding of serum 37 to linear peptides of protein X5 of SARS-CoV Urbani / Binding of serum 37 to looped/cyclic peptides of protein X5 of SARS-CoV Urbani / Binding of serum 6 to linear peptides of protein N of SARS-CoV Urbani / Binding of serum 37 to linear peptides of protein N of SARS-CoV Urbani / Binding of serum 6 to linear peptide (PEPSCAN-ELISA) / Binding of serum 1a to looped/cyclic peptides of protein N of SARS-CoV Urbani / Binding of serum 1b to looped/cyclic peptides of protein N of SARS-CoV Urbani / Binding of serum 2 to looped/cyclic peptides of protein N of SARS-CoV Urbani / Binding of serum 6 to looped/cyclic peptides of protein N of SARS-CoV Urbani / Binding of serum 37 to looped/cyclic peptides of protein N of SARS-CoV Urbani / Binding of serum 62 to looped/cyclic peptides of protein N of SARS-CoV Urbani / Binding of serum London to looped/cyclic peptides of protein N of SARS-CoV Urbani / Binding of serum SARS-green to looped/cyclic peptides of protein N of SARS-CoV Urbani: unit not given here
[2] = test system: control sera (pooled serum of ten healthy LUMC hospital workers; commercial negative donor pooled serum from the Dutch bloodbank); assay type: binding, human; parameters: Binding of Control serum LUMC to linear peptides / Binding of Control serum Blood-bank to linear peptides / Binding of Control serum LUMC to looped peptides / Binding of Control Serum Blood-Bank to Looped peptides / Binding of Control serum LUMC to linear peptides of the protein M of SARS-CoV Urbani / Binding of Control serum Blood-bank to linear peptides of the protein M of SARS-CoV Urbani / Binding of Control serum LUMC to looped peptides of the protein M of SARS-CoV Urbani / Binding of Control Serum Blood-Bank to Looped peptides of the protein M of SARS-CoV Urbani: unit not given here
[3] = test system: rabbit serum obtained by immunizing a rabbit with the SARS-CoV strain Frankfurt 1; assay type: binding; parameters: Binding of a rabbit serum to linear peptides / Binding of a rabbit serum to looped peptides / Rabbit serum linear peptides / Rabbit serum looped peptides / Binding of a rabbit serum to linear peptides of protein N of SARS-CoV Urbani (Rabbit serum linear peptides) / Binding of a rabbit serum to looped/cyclic peptides of protein N of SARS-CoV Urbani (Rabbit serum looped peptides): unit not given here

LKVTAFQHQNSKKTT
Binding of serum 1a to linear peptides of protein X2 [1]: 0.5
Binding of serum 1a to looped/cyclic peptides of protein X2 of SARS-CoV Urbani [1]: 0.3
Binding of serum 1b to linear peptides of protein X2 [1]: 0.4
Binding of serum 1b to looped/cyclic peptides of protein X2 of SARS-CoV Urbani [1]: 0.2
Binding of serum 2 to linear peptides of protein X2 [1]: 0.3
Binding of serum 2 to looped/cyclic peptides of protein X2 of SARS-CoV Urbani [1]: 0.1
Binding of serum 6 to linear peptides of protein X2 [1]: 0.3
Binding of serum 6 to looped/cyclic peptides of protein X2 of SARS-CoV Urbani [1]: 0.1
Binding of serum 37 to linear peptides of protein X2 [1]: 0.5
Binding of serum 37 to looped/cyclic peptides of protein X2 of SARS-CoV Urbani [1]: 0.2
Binding of serum 62 to linear peptides of protein X2 [1]: 0.3
Binding of serum 62 to looped/cyclic peptides of protein X2 of SARS-CoV Urbani [1]: 0.4
Binding of serum London to linear peptides of protein X2 [1]: 0.2
Binding of serum London to looped/cyclic peptides of protein X2 of SARS-CoV Urbani [1]: 0.1
Binding of serum SARS-green to linear peptides of protein X2 [1]: 0.2
Binding of serum SARS-green to looped/cyclic peptides of protein X2 of SARS-CoV Urbani [1]: 0.1
Binding of serum SARS-yellow to linear peptides of protein X2 [1]: 0.7
Binding of serum SARS-yellow to looped/cyclic peptides of protein X2 of SARS-CoV Urbani [1]: 0.2
Binding of Control Serum Blood-Bank to Looped peptides [2]: 0.3
Binding of Control serum Blood-bank to linear peptides [2]: 0.4
Binding of Control serum LUMC to linear peptides [2]: 0.8
Binding of Control serum LUMC to looped peptides [2]: 0.4
Binding of a rabbit serum to linear peptides [3]: 0.6
Binding of a rabbit serum to looped peptides [3]: 0.3

KFALTCTSTHFAFAC
Binding of serum 1a to linear peptides of protein X4 of SARS-CoV Urbani [1]: 0.8
Binding of serum 1a to looped/cyclic peptides of protein X4 of SARS-CoV Urbani [1]: 1.0
Binding of serum 1b to linear peptides of protein X4 of SARS-CoV Urbani [1]: 0.6
Binding of serum 1b to looped/cyclic peptides of protein X4 of SARS-CoV Urbani [1]: 0.7
Binding of serum 2 to linear peptides of protein X4 of SARS-CoV Urbani [1]: 0.5
Binding of serum 2 to looped/cyclic peptides of protein X4 of SARS-CoV Urbani [1]: 0.9
Binding of serum 6 to linear peptides of protein X4 of SARS-CoV Urbani [1]: 0.8
Binding of serum 6 to looped/cyclic peptides of protein X4 of SARS-CoV Urbani [1]: 0.7
Binding of serum 37 to linear peptides of protein X4 of SARS-CoV Urbani [1]: 0.8
Binding of serum 37 to looped/cyclic peptides of protein X4 of SARS-CoV Urbani [1]: 0.7
Binding of serum 62 to linear peptides of protein X4 of SARS-CoV Urbani [1]: 0.8
Binding of serum 62 to looped/cyclic peptides of protein X4 of SARS-CoV Urbani [1]: 0.9
Binding of serum London to linear peptides of protein X4 of SARS-CoV Urbani [1]: 0.8
Binding of serum London to looped/cyclic peptides of protein X4 of SARS-CoV Urbani [1]: 0.4
Binding of serum SARS-green to linear peptides of protein X4 of SARS-CoV Urbani [1]: 0.4
Binding of serum SARS-green to looped/cyclic peptides of protein X4 of SARS-CoV Urbani [1]: 0.8
Binding of serum SARS-yellow to linear peptides of protein X4 of SARS-CoV Urbani [1]: 0.6
Binding of serum SARS-yellow to looped/cyclic peptides of protein X4 of SARS-CoV Urbani [1]: 0.8
Binding of Control Serum Blood-Bank to Looped peptides [2]: 0.9
Binding of Control serum Blood-bank to linear peptides [2]: 0.7
Binding of Control serum LUMC to linear peptides [2]: 0.7
Binding of Control serum LUMC to looped peptides [2]: 0.8
Rabbit serum linear peptides [3]: 0.5
Rabbit serum looped peptides [3]: 0.6

VSQIQLSLLKVTAFQ
Binding of serum 1a to linear peptides of protein X2 [1]: 0.5
Binding of serum 1a to looped/cyclic peptides of protein X2 of SARS-CoV Urbani [1]: 0.5
Binding of serum 1b to linear peptides of protein X2 [1]: 0.4
Binding of serum 1b to looped/cyclic peptides of protein X2 of SARS-CoV Urbani [1]: 0.4
Binding of serum 2 to linear peptides of protein X2 [1]: 0.4
Binding of serum 2 to looped/cyclic peptides of protein X2 of SARS-CoV Urbani [1]: 0.4
Binding of serum 6 to linear peptides of protein X2 [1]: 0.5
Binding of serum 6 to looped/cyclic peptides of protein X2 of SARS-CoV Urbani [1]: 0.6
Binding of serum 37 to linear peptides of protein X2 [1]: 0.6
Binding of serum 37 to looped/cyclic peptides of protein X2 of SARS-CoV Urbani [1]: 0.4
Binding of serum 62 to linear peptides of protein X2 [1]: 0.3
Binding of serum 62 to looped/cyclic peptides of protein X2 of SARS-CoV Urbani [1]: 0.6
Binding of serum London to linear peptides of protein X2 [1]: 0.3
Binding of serum London to looped/cyclic peptides of protein X2 of SARS-CoV Urbani [1]: 0.8
Binding of serum SARS-green to linear peptides of protein X2 [1]: 0.1
Binding of serum SARS-green to looped/cyclic peptides of protein X2 of SARS-CoV Urbani [1]: 0.3
Binding of serum SARS-yellow to linear peptides of protein X2 [1]: 0.4
Binding of serum SARS-yellow to looped/cyclic peptides of protein X2 of SARS-CoV Urbani [1]: 0.6
Binding of Control Serum Blood-Bank to Looped peptides [2]: 0.6
Binding of Control serum Blood-bank to linear peptides [2]: 0.5
Binding of Control serum LUMC to linear peptides [2]: 0.8
Binding of Control serum LUMC to looped peptides [2]: 0.6
Binding of a rabbit serum to linear peptides [3]: 0.6
Binding of a rabbit serum to looped peptides [3]: 0.4

YFVASFRLFARTRSM
Binding of serum 1a to linear peptides of protein M of SARS-CoV Urbani [1]: 0.6
Binding of serum 1b to linear peptides of protein M of SARS-CoV Urbani [1]: 0.4
Binding of serum 2 to linear peptides of protein M of SARS-CoV Urbani [1]: 0.4
Binding of serum 6 to linear peptides of protein M of SARS-CoV Urbani [1]: 0.4
Binding of serum 37 to linear peptides of protein M of SARS-CoV Urbani [1]: 0.4
Binding of serum 62 to linear peptides of protein M of SARS-CoV Urbani [1]: 0.6
Binding of serum London to linear peptides of protein M of SARS-CoV Urbani [1]: 0.3
Binding of serum SARS-green to linear peptides of protein M of SARS-CoV Urbani [1]: 0.3
Binding of serum SARS-yellow to linear peptides of protein M of SARS-CoV Urbani [1]: 0.1
Recognition of the peptide by sera of SARS-CoV infected individuals, and form (linear, looped/cyclic) in which it is recognized [1]: recognized in looped/cyclic form
Binding of Control Serum Blood-Bank to Looped peptides of the protein M of SARS-CoV Urbani [2]: 0.9
Binding of Control serum Blood-bank to linear peptides of the protein M of SARS-CoV Urbani [2]: 0.6
Binding of Control serum LUMC to linear peptides of the protein M of SARS-CoV Urbani [2]: 0.3
Binding of Control serum LUMC to looped peptides of the protein M of SARS-CoV Urbani [2]: 0.7
Rabbit serum linear peptides [3]: 0.6
Rabbit serum looped peptides [3]: 0.8

SFRLFARTRSMWSFN
Binding of serum 1a to linear peptides of protein M of SARS-CoV Urbani [1]: 0.8
Binding of serum 1a to looped/cyclic peptides of protein M of SARS-CoV Urbani [1]: 0.6
Binding of serum 1b to linear peptides of protein M of SARS-CoV Urbani [1]: 0.7
Binding of serum 1b to looped/cyclic peptides of protein M of SARS-CoV Urbani [1]: 0.5
Binding of serum 2 to linear peptides of protein M of SARS-CoV Urbani [1]: 0.5
Binding of serum 2 to looped/cyclic peptides of protein M of SARS-CoV Urbani [1]: 0.5
Binding of serum 6 to linear peptides of protein M of SARS-CoV Urbani [1]: 0.2
Binding of serum 6 to looped/cyclic peptides of protein M of SARS-CoV Urbani [1]: 0.8
Binding of serum 37 to linear peptides of protein M of SARS-CoV Urbani [1]: 0.8
Binding of serum 37 to looped/cyclic peptides of protein M of SARS-CoV Urbani [1]: 0.6
Binding of serum 62 to linear peptides of protein M of SARS-CoV Urbani [1]: 0.7
Binding of serum 62 to looped/cyclic peptides of protein M of SARS-CoV Urbani [1]: 0.6
Binding of serum London to linear peptides of protein M of SARS-CoV Urbani [1]: 0.3
Binding of serum London to looped/cyclic peptides of protein M of SARS-CoV Urbani [1]: 0.2
Binding of serum SARS-green to linear peptides of protein M of SARS-CoV Urbani [1]: 0.4
Binding of serum SARS-green to looped/cyclic peptides of protein M of SARS-CoV Urbani [1]: 0.3
Binding of serum SARS-yellow to linear peptides of protein M of SARS-CoV Urbani [1]: 0.1
Binding of serum SARS-yellow to looped/cyclic peptides of protein M of SARS-CoV Urbani [1]: 0.5
Binding of Control Serum Blood-Bank to Looped peptides of the protein M of SARS-CoV Urbani [2]: 0.7
Binding of Control serum Blood-bank to linear peptides of the protein M of SARS-CoV Urbani [2]: 0.6
Binding of Control serum LUMC to linear peptides of the protein M of SARS-CoV Urbani [2]: 0.4
Binding of Control serum LUMC to looped peptides of the protein M of SARS-CoV Urbani [2]: 0.6
Rabbit serum linear peptides [3]: 0.8
Rabbit serum looped peptides [3]: 0.2
